PubChem BioAssay (NCI)
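Tested at 5 concentrations; 48 h exposure; 96-well plates; endpoints linearly interpolated, else capped at highest concentration. At the GI50, growth is halved. Definition used: TGI = concentration required for complete inhibition of growth.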

Columns and labels:
Test in all cases: NCI tumour cell line growth inhibition, 48 h
[1] = test system: NCI-H23 lung
[2] = test system: NCI-H460 lung
[3] = test system: NCI-H522 lung
[4] = test system: NCI/ADR-RES ovarian
[5] = test system: OVCAR-3 ovarian
[6] = test system: OVCAR-4 ovarian
[7] = test system: OVCAR-5 ovarian
[8] = test system: OVCAR-8 ovarian
[9] = test system: PC-3 prostate
[10] = test system: RPMI-8226 leukemia
[11] = test system: RXF 393 renal
[12] = test system: SF-268 CNS
[13] = test system: SF-295 CNS
[14] = test system: SF-539 CNS
[15] = test system: SK-MEL-2 melanoma
[16] = test system: SK-MEL-28 melanoma
[17] = test system: SK-MEL-5 melanoma
[18] = test system: SK-OV-3 ovarian
[19] = test system: SN12C renal
[20] = test system: SNB-19 CNS
[21] = test system: SNB-75 CNS
[22] = test system: SR leukemia
[23] = test system: SW-620 colon
[24] = test system: T-47D breast
[25] = test system: TK-10 renal
[26] = test system: U251 CNS
[27] = test system: UACC-257 melanoma
[28] = test system: UACC-62 melanoma
[29] = test system: UO-31 renal

## N#Cc1cccc(Nc2ncc(-c3ccccc3)o2)c1
[1]
  GI50: > 22.8 µM
  TGI: > 25 µM
[2]
  GI50: 11.3 µM
  TGI: > 25 µM
[3]
  GI50: 19.2 µM
  TGI: > 25 µM
[4]
  GI50: 19.2 µM
  TGI: > 25 µM
[5]
  GI50: 8.71 µM
  TGI: > 25 µM
[6]
  GI50: 10.9 µM
  TGI: > 25 µM
[7]
  GI50: 16.4 µM
  TGI: > 25 µM
[8]
  GI50: 16.7 µM
  TGI: > 25 µM
[9]
  GI50: 15.1 µM
  TGI: > 25 µM
[10]
  GI50: > 25 µM
  TGI: > 25 µM
[11]
  GI50: 5.55 µM
  TGI: 15.8 µM
[12]
  GI50: 17.3 µM
  TGI: > 25 µM
[13]
  GI50: 9.99 µM
  TGI: > 25 µM
[14]
  GI50: 10.3 µM
  TGI: > 25 µM
[15]
  GI50: > 25 µM
  TGI: > 25 µM
[16]
  GI50: > 20.4 µM
  TGI: > 25 µM
[17]
  GI50: 13 µM
  TGI: > 25 µM
[18]
  GI50: 8.4 µM
  TGI: 19.6 µM
[19]
  GI50: 24.2 µM
  TGI: > 25 µM
[20]
  GI50: 17.3 µM
  TGI: > 25 µM
[21]
  GI50: 10.8 µM
  TGI: > 22.6 µM
[22]
  GI50: 11.8 µM
  TGI: > 25 µM
[23]
  GI50: 22.4 µM
  TGI: > 25 µM
[24]
  GI50: 11.7 µM
  TGI: > 25 µM
[25]
  GI50: 16.5 µM
  TGI: > 25 µM
[26]
  GI50: 10.6 µM
  TGI: > 25 µM
[27]
  GI50: > 25 µM
  TGI: > 25 µM
[28]
  GI50: 13.1 µM
  TGI: > 25 µM
[29]
  GI50: 7.84 µM
  TGI: > 25 µM
